Read-outs that look alike come from different tables or passages of the source.
Assays:
tubulin = experiment: Fluorescence-based tubulin polymerization assay (MPA; enhancement for paclitaxel, inhibition for vinblastine); format: biochemical
Procedure, shortened: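 Tubulin polymerisation was followed by fluorescence (ex 360/em 405 nm) with 1 mg/ml BSA in all assays. For paclitaxel conjugates, glycerol was omitted. Parent drugs and conjugates were tested at 0.75, 1.5, 3 and 10 micromolar final, and values come from the linear range of the dose responses.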

MCF-7 breast carcinoma = experiment: Cytotoxicity assay (monolayer), MCF-7; format: cell-based; conditions: MCF7, ML (monolayer), read-out: MCF7 (EC50 Ave) ML;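 also: cells treated 72 h with 6-8 compound doses versus DMSO vehicle controls, EC50 fitted by 4-parameter dose-response curves, averaged across all tests and lots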
[1] = tested on: HT-29 colorectal carcinoma; experiment: Cytotoxicity assay (monolayer), HT-29; format: cell-based; conditions: HT29, ML (monolayer), read-out: HT29 (EC50 Ave) ML;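 also: monolayer cultures tested in triplicate, compound exposure for three days against DMSO vehicle controls, EC50 fitted from dose-response curves and averaged across all tests and lots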
HUVEC = experiment: Cytotoxicity assay (monolayer), HUVEC; format: cell-based; conditions: ML (monolayer), read-out: HUVEC (EC50 Ave) ML
[2] = tested on: Normal human foreskin fibroblasts (HFF)
MCF-7 cells [3] = tested on: MCF-7 cells
HT-29 cells [4] = tested on: HT-29 cells
Akt [5] = biological target: T1, Akt (Homo sapiens, UniProt P31749); experiment: Akt kinase assay (PKLight ATP utilization, substrate phosphorylation as % of parent peptide); format: biochemical; design: purchased Upstate (Charlottesville, Va.) 14-276
Description: Another test may involve monitoring the consumption of ATP. For example, ATP concentrations at time 0 or after 4 hour incubation may be monitored by luciferase reaction (PKLight kit obtained from Cambrex Corporation, One Meadowlands Plaza, East Rutherford, N.J. 07073), which generate a luminescence readout in the presence of ATP. Assays are initiated by mixing a kinase and a peptide in the presence of 40 μM ATP. After 4 hour of incubation at 30° C., PKLight reagent is added and mixed well, and luminescence readout measured. The rate of peptide phosphorylation is then directly related to the rate of decrease in the observed luminescence. Based on the first test, linkers of appropriate lengths and peptides with an effective amount of kinase activity which may be expected to be retained in the drug conjugate may be found.
Human Src (#14-326) and Akt (#14-276) kinases were purchased from Upstate (Charlottesville, Va.). Kinase reactions were carried out in 50 μl kinase reaction cocktail (25 mM Tris-HCl, pH 7.5, 5 μM β-glycerophosphate, 2 mM DTT, 0.1 mM Na3VO4, 10 mM MgCl2, 1 mg/ml BSA, […], 0.5 to 1.0 units enzyme). Substrates (peptide or drug-peptide conjugate in […]) were added (25, 50 and 100 μM) and the reaction was incubated for 2-5 hours at 30° C. PKLight reagent (23 μl) (Cambrex BioSciences, Rockland, Me.) was mixed with […] of the above kinase reaction and ATP utilization relative to no substrate and no ATP controls was determined by measuring luminescence with a SpectraMax Gemini EM plate reader (Molecular Devices, Sunnyvale, Calif.). Peptide substrates for Src and Akt have been described. For examples, see Lou et al. Letters in Peptide Science, 2, 289-296 (1995); Lou et al. Bioorganic & Medicinal Chemistry, 4, 677-682 (1996); Alessi et al. FEBS Letters, 399, 333-338 (1996). Substrate phosphorylation potential was determined from the linear portion of the substrate concentration dose response as a percentage of the activity observed with the parent peptide used for drug conjugation.

Akt [6] = biological target: T1, Akt; conditions: Akt peptide substrates, Alessi et al. 1996; cited from earlier work
[7] = Serum stability in RPMI1640 medium containing 10% fetal bovine serum; format: in vitro ADME; conditions: for remaining at 4 h, 10 μM / remaining at 8 h, 10 μM / remaining at 24 h, 10 μM / remaining at 72 h, 10 μM / half-life at 10 μM: bovine; for remaining at 4 h, 10 μM: read-out: Relative Percent Remaining at 4 hr; for remaining at 8 h, 10 μM: read-out: Relative Percent Remaining at 8 hr; for remaining at 24 h, 10 μM: read-out: Relative Percent Remaining at 24 hr; for remaining at 72 h, 10 μM: read-out: Relative Percent Remaining at 72 hr; for half-life at 10 μM: read-out: T½ (converted)
Description: The stability of conjugates was measured in RPMI1640 cell culture medium containing 10% fetal bovine serum. The serum-containing medium was pre-warmed at 37° C. for 3 min prior to addition of test articles. Test articles, prepared in DMSO as 5 mM stocks, were added to the cell culture media to a final concentration of 10 μM. Aliquots ([…]) were withdrawn in triplicate at 0, 4, 8, 24 and 72 hours and combined with the same volume of ice-cold acetonitrile to terminate the reaction. The mixture was centrifuged at 2,000×g for 10 minutes. One part of the supernatant was mixed with four parts of deionized water to bring down the percentage of organic solvent. The diluted samples were then assayed by LC/MS for the test article. The natural log of the percent remaining was plotted versus time. A linear fit was used to determine the rate constant. The fit was truncated after the percent of remaining test article was less than 10%. The elimination half-lives associated with the disappearance of test articles were determined to compare their relative stability. The assays were carried out by Absorption Systems (Exton, Pa.).

[8] = tested on: tumor cells vs normal cells; experiment: Cytotoxic selectivity index (normal cells in monolayer vs tumor cells in soft agar)
[9] = tested on: Normal human foreskin fibroblasts (HFF); experiment: cells; conditions: Fibroblast, read-out: HFF (EC50 Ave) ML
MCF-7 cells [10] = experiment: cells; conditions: Homo sapiens, MCF7, read-out: MCF7 (EC50 Ave) SA
HT-29 cells [11] = experiment: cells; conditions: Homo sapiens, HT-29, read-out: HT29 (EC50 Ave) SA
[12] = read-out: HFF (EC50 Ave) ML, HFF, ML (monolayer)
[13] = read-out: MCF7 (EC50 Ave) SA, MCF7, SA (soft agar)
[14] = read-out: HT29 (EC50 Ave) SA, HT29, SA (soft agar)
[15] = read-out: HFFMonolayer EC50, HFF normal cells, monolayer, 72 hours, mean ± SD
[16] = read-out: MCF-7 Soft Agar EC50, MCF-7 tumor cells, soft agar, 10-14 days, mean ± SD
[17] = read-out: HT-29 Soft Agar EC50, HT-29 tumor cells, soft agar, 10-14 days, mean ± SD

T1 sequence (P31749 whole entry): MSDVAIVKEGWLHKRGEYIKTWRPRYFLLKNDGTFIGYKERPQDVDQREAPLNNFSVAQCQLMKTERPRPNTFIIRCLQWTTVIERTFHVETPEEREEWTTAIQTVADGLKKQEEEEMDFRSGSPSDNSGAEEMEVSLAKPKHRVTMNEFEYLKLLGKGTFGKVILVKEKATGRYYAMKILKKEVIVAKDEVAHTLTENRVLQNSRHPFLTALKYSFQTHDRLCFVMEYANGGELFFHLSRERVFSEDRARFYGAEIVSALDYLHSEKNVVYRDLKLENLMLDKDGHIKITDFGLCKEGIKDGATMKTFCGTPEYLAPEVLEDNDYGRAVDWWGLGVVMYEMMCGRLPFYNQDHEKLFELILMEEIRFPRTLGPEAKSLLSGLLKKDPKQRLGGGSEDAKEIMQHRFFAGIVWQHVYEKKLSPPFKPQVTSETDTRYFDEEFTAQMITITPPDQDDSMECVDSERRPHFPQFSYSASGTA

In the case of “CBz-RPRTSSF-PEG(13)-10Ca-PXL (N-CBz; PEG(13) linker; paclitaxel conjugate)”, the “Ave. MPA Act.” value (tubulin) is reported as “C (C>80)”, the EC50 (MCF-7 breast carcinoma) is reported as greater than 100 nM and the EC50 [1] is reported as 20 to 100 nM. The EC50 (HUVEC) was greater than 100 nM, the EC50 [2, 12] was greater than 100 nM and the EC50 (MCF-7 cells [3]; [13]) was 20 to 100 nM. For the same molecule, the EC50 (HT-29 cells [4]; [14]) was 20 to 100 nM and the “Ave. Akt Kinase Act.” value (Akt [5]) was “C (C>40)”.

In the case of “RPRTSTF [peptide substrate for Akt from the literature]”, the “specificity with respect to related MAP kinase and S6 kinase” value (Akt [6]) is listed as “exhibit specificity”.

With `CC[C@H](C)[C@H](NC(=O)[C@H](Cc1ccc(O)cc1)NC(=O)C(C)(C)C)C(=O)N[C@@H](Cc1ccc(O)cc1)C(=O)NCC(=O)N[C@@H](CO)C(=O)N[C@@H](Cc1ccccc1)C(=O)N[C@@H](CCCNC(=N)N)C(=O)NCCCOCCOCCOCCCNC(=O)O[C@H]1C(=O)[C@@]2(C)[C@H]([C@H](OC(=O)c3ccccc3)[C@]3(O)C[C@H](OC(=O)[C@H](O)[C@@H](NC(=O)c4ccccc4)c4ccccc4)C(C)=C1C3(C)C)[C@]1(OC(C)=O)CO[C@@H]1C[C@@H]2O` [Pv-YIYGSFR-PEG(13)-10Ca-PXL] the “Ave. MPA Act.” value (tubulin) was “B (B=50-80)”, the EC50 (MCF-7 breast carcinoma) was greater than 100 nM and the EC50 [1] was greater than 100 nM. For the same molecule, the “Relative Percent Remaining at 0 hr” value [7] was 100%, the remaining at 4 h, 10 μM [7] was 73% and the remaining at 8 h, 10 μM [7] was 63%. It also gave a remaining at 24 h, 10 μM [7] of 63%, a remaining at 72 h, 10 μM [7] of 64% and a half-life at 10 μM [7] greater than 3 days. It also gave an EC50 (HUVEC) greater than 100 nM, an EC50 [2, 12] greater than 100 nM and an EC50 [2, 15] of 2140 nM. The EC50 (MCF-7 cells [3]; [13]) was 20 to 100 nM, the EC50 (MCF-7 cells [3]; [16]) was 80 ± 13 nM and the EC50 (HT-29 cells [4]; [14]) was greater than 100 nM. The EC50 (HT-29 cells [4]; [17]) was 175 ± 43 nM, the “Cytotoxic Selectivity Index HFF/HT29” value [8] was 12.3 and the “Cytotoxic Selectivity Index HFF/MCF7” value [8] was 26.6.

With “BOC-RPRTSSF-PEG(13)-10Ca-PXL (N-BOC; PEG(13) linker; paclitaxel conjugate)” the “Ave. MPA Act.” value (tubulin) was “C (C>80)”, the EC50 (HUVEC) was greater than 100 nM and the EC50 [2, 12] was 20 to 100 nM. The EC50 (HT-29 cells [4]; [14]) was greater than 100 nM and the “Ave. Akt Kinase Act.” value (Akt [5]) was “C (C>40)”.

With `CC(=O)O[C@H]1C(=O)[C@@]2(C)[C@H]([C@H](OC(=O)c3ccccc3)[C@]3(O)C[C@H](OC(=O)[C@H](O)[C@@H](NC(=O)c4ccccc4)c4ccccc4)C(C)=C1C3(C)C)[C@]1(OC(C)=O)CO[C@@H]1C[C@@H]2O` [Paclitaxel (PXL)] the “Ave. MPA Act.” value (tubulin) was “C (C>80)”, the EC50 (MCF-7 breast carcinoma; Homo sapiens) was less than 20 nM and the EC50 ([1]; Homo sapiens, HT-29) was less than 20 nM. It also gave an EC50 (HUVEC; Homo sapiens) of less than 20 nM, an EC50 [9] of less than 20 nM and an EC50 (MCF-7 cells [10]) of less than 20 nM. For the same molecule, the EC50 (HT-29 cells [11]) was less than 20 nM.

In the case of `CC[C@H](C)[C@H](NC(=O)[C@H](Cc1ccc(O)cc1)NC(=O)OCc1ccccc1)C(=O)N[C@@H](Cc1ccc(O)cc1)C(=O)NCC(=O)N[C@@H](CO)C(=O)N[C@@H](Cc1ccccc1)C(=O)N[C@@H](CCCCN)C(=O)NCCOCCOCCOCCNC(=O)[C@@]1(O)[C@H](O)[C@]2(CC)C=CCN3CC[C@@]4(c5cc([C@@]6(C(=O)OC)C[C@@H]7CN(CCc8c6[nH]c6ccccc86)C[C@](O)(CC)C7)c(OC)cc5N(C)[C@@H]14)[C@@H]32` [CBz-YIYGSFK-PEG(11)-3Am-VBL], the EC50 (MCF-7 breast carcinoma) is reported as greater than 100 nM, the EC50 [1] is reported as greater than 100 nM and the “Relative Percent Remaining at 0 hr” value [7] is reported as 100%. For the same molecule, the remaining at 4 h, 10 μM [7] was 88%, the remaining at 8 h, 10 μM [7] was 102% and the remaining at 24 h, 10 μM [7] was 100%. The remaining at 72 h, 10 μM [7] was 61%, the half-life at 10 μM [7] was greater than 3 days and the EC50 (HUVEC) was greater than 100 nM. It also gave an EC50 [2, 12] greater than 100 nM, an EC50 [2, 15] of 655 ± 186 nM and an EC50 (MCF-7 cells [3]; [13]) greater than 100 nM. It also gave an EC50 (MCF-7 cells [3]; [16]) of 156 ± 37 nM, an EC50 (HT-29 cells [4]; [14]) greater than 100 nM and an EC50 (HT-29 cells [4]; [17]) of 464 ± 351 nM. The “Cytotoxic Selectivity Index HFF/HT29” value [8] was 1.4 and the “Cytotoxic Selectivity Index HFF/MCF7” value [8] was 4.2.

Source: patent US20060234909A1, “Compositions and methods for increasing drug efficiency” (priority 2003, published 2006)
